The assay has as its target Replicase polyprotein 1a (Severe acute respiratory syndrome-related coronavirus, UniProt P0C6U8). Kind of assay: Inhibition of SARS coronavirus chymotrypsin-like protease by fluorescence plate reader.

Structures are written as SMILES.

`COc1ccc(-c2nc(SCc3ccccc3)[nH]c(=O)c2C#N)cc1` came in with an IC50 above 50 µM.

The molecule `N#Cc1c(-c2ccccc2)nc(SCCc2ccccc2)[nH]c1=O` showed an IC50 above 50 µM.

Regarding `COc1ccc(-c2nc(SCc3ccc([N+](=O)[O-])cc3)[nH]c(=O)c2C#N)cc1`, the IC50 stood at 26.3 µM. This counts as double-digit micromolar.

`N#Cc1c(-c2cccc(Cl)c2)nc(SCc2ccccc2)[nH]c1=O` showed an IC50 above 50 µM.

`N#Cc1c(-c2ccccc2)nc(SCc2ccc([N+](=O)[O-])cc2)[nH]c1=O` registered an IC50 of 35.2 µM.

With `N#Cc1c(-c2ccc(Cl)cc2)nc(SCCc2ccccc2)[nH]c1=O`, the IC50 stood at 16.9 µM.

In turn, `Cc1ccc(-c2nc(SCCc3ccccc3)[nH]c(=O)c2C#N)cc1` returned an IC50 above 50 µM.

Molecule `N#Cc1c(-c2cccc([N+](=O)[O-])c2)nc(SCc2ccc([N+](=O)[O-])cc2)[nH]c1=O` returned an IC50 of 10.6 µM.

For `Cc1ccc(-c2nc(SCc3ccc([N+](=O)[O-])cc3)[nH]c(=O)c2C#N)cc1`, the IC50 is above 50 µM.

`Cc1ccc(-c2nc(SCc3ccccc3)[nH]c(=O)c2C#N)cc1` registered an IC50 above 50 µM.

Regarding `N#Cc1c(-c2ccccc2)nc(SCc2ccccc2)[nH]c1=O`, the IC50 was above 50 µM.

For `N#Cc1c(-c2ccc(Cl)cc2)nc(SCc2ccc([N+](=O)[O-])cc2)[nH]c1=O`, the IC50 worked out at 6.1 µM. That is a single-digit micromolar value.

`N#Cc1c(-c2cccc([N+](=O)[O-])c2)nc(SCCc2ccccc2)[nH]c1=O` had an IC50 above 50 µM.

In the case of `COc1ccc(-c2nc(SCCc3ccccc3)[nH]c(=O)c2C#N)cc1`, the IC50 is 20.3 µM.
